The results in this text go back to patent US20260306500A1, “METHOD OF INHIBITING ADENOSINE TRIPHOSPHATE SECRETION, METHOD OF INHIBITING HEPATIC STELLATE CELL ACTIVATION, METHOD OF DEACTIVATING HEPATIC STELLATE CELL, METHOD OF TREATING HEPATIC FIBROSIS, METHOD OF TREATING NON-ALCOHOLIC STEATOHEPATITIS, AND METHOD OF TREATING PSORIASIS” (Kurume University, priority 2023, published 2026).

For test [1], the system named is human epidermal keratinocytes. As to the kind of experiment: ATP secretion from human epidermal keratinocytes promoted by ionomycin. Format: cell-based. The following applies: for ATP secretion level relative to control solution (RLU ratio): 1 μM imeglimin, N=3 (FIG. 4). The procedure:
Human epidermal keratinocytes (Cryopreserved HEK, Lot 1758, Cell Applications Inc.) were cultured using an Epivita Keratinocyte Growth Medium Kit according to the manufacturer's instructions. The procedure was as follows. A supplement medium was added to a hydrocortisone-containing basal medium included in the medium preparation kit to prepare a complete medium. The medium in the dish was removed by aspiration. The cells were washed with 5 ml of BSS (Gbco), and then the BSS was removed by aspiration. After addition of 5 to 6 ml of trypsin/EDTA solution (Gbco), the dish was incubated at 37° C. for 2 minutes. After addition of 5 ml of trypsin neutralization solution, the resulting cell suspension was transferred into two 15-ml Falcon tubes, and centrifuged at 200×g for 5 minutes. The supernatant was removed by aspiration, and the pelleted cell cluster was suspended in 2 ml of the medium at 4.5×10^5 cells/ml. An aliquot of the resulting cell suspension was cryopreserved, while another aliquot was cultured and subjected to measurement.
ATP secretion by human epidermal keratinocytes (hereinafter referred to as “keratinocytes”) was measured. Regarding control solutions, Krebs-Ringer HEPES supplemented with 0.2% BSA and 25 mM glucose (hereinafter also referred to as “Krebs/Iono(−)”) was used as a negative control, and a solution prepared by adding 5 μM ionomycin to this solution (hereinafter also referred to as “Krebs/Iono(+)”) was used as a positive control for ATP secretion. Ionomycin is a Ca^2+ ionophore. Addition of ionomycin to cells is known to promote influx of extracellular Ca^2+ into the cells to increase the intracellular Ca^2+ concentration, resulting in enhancement of ATP secretion. Test solutions were prepared by adding clodronate to Krebs/Iono(−) or Krebs/Iono(+) to a final concentration of 0.1 μM (hereinafter also referred to as “Clo/Iono(−)” or “Clo/Iono(+)”, respectively) (N=3).
Keratinocytes were cultured at 2.5×10^4 cells/well in a 24-well plate at 37° C. in 5% CO2 for 4 days. The medium was removed by aspiration, replaced with Krebs/Iono(−) or Clo/Iono(−), and incubated at 37° C. for 6 hours. These solutions were then removed by aspiration, and the content of each well incubated with Krebs/Iono(−) was replaced with 300 μl of a control solution (Krebs/Iono(−) or Krebs/Iono(+)), while the content of each well incubated with Clo/Iono(−) was replaced with 300 μl of a test solution (Clo/Iono(−) or Clo/Iono(+)). After further incubation at 37° C. for 20 minutes, 200 μl of the supernatant was collected. The collected supernatant was immediately treated on a heat block at 95° C. for 10 minutes, to inactivate ectonucleotidase. ATP in the supernatant was quantified using a Dojindo ATP assay kit−Luminescence (manufactured by Dojindo Laboratories).
Keratinocytes were cultured in the same manner as in Example 1, and ATP secretion from the keratinocytes was measured. Krebs/Iono(−), or a solution prepared by adding 10 μM imeglimin, 0.1 μM eicosapentaenoic acid (EPA), 1 μM EPA, or 10 μM clodronate to Krebs/Iono(−) was used (N=4).
After culturing keratinocytes, the medium was removed by aspiration, and replaced with Krebs/Iono(−), or Krebs/Iono(−) supplemented with 10 μM imeglimin, 0.1 μM EPA, 1 μM EPA, or 10 μM clodronate, followed by incubation for 6 hours. Subsequently, the solution was replaced with either a control solution (Krebs/Iono(−) or Krebs/Iono(+)) or a test solution (Krebs/Iono(+) supplemented with 10 μM imeglimin, 0.1 μM EPA, 1 μM EPA, or 10 μM clodronate), followed by incubation at 37° C. for 20 minutes and then collection of 200 μl of the supernatant. The collected supernatant was immediately treated on a heat block at 95° C. for 10 minutes to inactivate ectonucleotidase. ATP in the supernatant was quantified using a Dojindo ATP assay kit—Luminescence (manufactured by Dojindo Laboratories). […]

Test [2] relates to α-SMA-positive cells (stellate cells) in mouse liver. As to the kind of experiment: TAA-induced activation of HSCs in mice: α-SMA immunostaining of liver sections. In kind it is in vivo. From the text: For immunohistochemical analysis, liver samples were fixed in 4% paraformaldehyde, embedded in paraffin, and then sectioned. The sections were stained with HE or PSR. In addition, the paraffin-embedded sections were subjected to immunostaining using an α-SMA monoclonal antibody (1:500, catalog No. A5228, manufactured by Sigma-Aldrich) and an F4/80 monoclonal antibody (1:200, catalog No. MCA497GA, manufactured by AbD Serotec). The cell specimens were observed using a microscope (BZ-X700 series, manufactured by Keyence) or a confocal laser microscope (FV1000, manufactured by Olympus Corporation). The number of F4/80-positive cells was counted in four high-power fields per section. The α-SMA-positive area and the PSR-positive area were quantified using the image analysis software Fiji-ImageJ (1.54f).
In accordance with Example 15, immunostaining of α-SMA in liver sections and observation by fluorescence microscopy were performed for the normal control group, the TAA group, and the TAA+IMG group, and for a TAA+Clo group, which was treated in the same manner as the TAA+IMG group except that clodronate, instead of imeglimin, was administered at 30 mg/kg by blending it in the drinking water from 1 week after the start of TAA administration.

The test system of test [3] is human epidermal keratinocytes. As to the kind of experiment: ATP secretion from keratinocytes upon LPS stimulation. The following applies: 18 hours, 10 μg/ml LPS, N=8 (FIG. 8). Format: cell-based. The procedure: Keratinocytes were cultured in the same manner as in Example 1. Keratinocytes were cultured at 2.5×10^4 cells/well in a 24-well plate at 37° C. in 5% CO2 for 4 days. The medium was replaced with a test solution (Hanks' balanced salt solution (HBSS) (manufactured by Gibco) supplemented with imeglimin, metformin, or clodronate), and then incubation was performed at 37° C. in 5% CO2 for 18 hours. Thereafter, LPS (10 μg/ml) was added thereto, and incubation was further carried out for 10 minutes, followed by collection of 200 μl of the supernatant. The supernatant was immediately treated on a heat block at 95° C. for 10 minutes, and ATP in the supernatant was quantified using an ATP Assay Kit−Luminescence (manufactured by Dojindo) (N=8).

Regarding `O=P(O)(O)C(Cl)(Cl)P(=O)(O)O` [clodronate], the “ATP secretion level promoted by ionomycin” value in test [1] (0.1 μM clodronate, 6 h preincubation, 5 μM ionomycin, N=3 (FIG. 1)) was “almost the same as those in Krebs/Iono(−) and Clo/Iono(−)”. In addition, the “TAA-induced increase in α-SMA-positive reaction” value in test [2] (30 mg/kg clodronate in drinking water (FIG. 29)) is given as “markedly suppressed”. For the same molecule, the “LPS-stimulated ATP secretion” value in test [3] (10 μM) is given as “almost completely inhibited”.
In the case of `C=C(OP(=O)(O)O)C(=O)O` [PEP, phosphoenolpyruvic acid], in test [1] (PEP at not less than 3 mM (data not shown)), the “ATP secretion inhibitory effect” value is listed as “relatively strong ATP secretion inhibitory effect”.
As to `C[C@@H]1N=C(N)NC(N(C)C)=N1` [imeglimin], the “ATP secretion inhibitory effect at low concentration” value in test [1] (0.1 μM, 6 h preincubation, ionomycin) is on record as “exhibit an ATP secretion inhibitory effect”. Besides, the “ATP secretion level relative to control solution (RLU ratio)” value in test [1] (incubation time 2 hours, ionomycin) is “about 85%”; in test [1] (incubation time 6 hours, ionomycin), “about 40%”. The “ATP secretion inhibitory effect, comparison” value in test [1] (10 μM imeglimin vs 1 μM EPA and 10 μM clodronate) was “comparable to those of 1 μM EPA and 10 μM clodronate”. Further, the “ATP secretion inhibitory effect relative to metformin” value in test [1] (0.1, 1, 10 μM, 6 h preincubation, N=3 (FIG. 3)) is listed as “slightly higher ATP secretion inhibitory effect than metformin”. In addition, the “α-SMA immunostaining, effect compared with clodronate” value in test [2] (imeglimin 200 mg/kg p.o. (FIG. 30)) is reported as “effect similar to that of clodronate”. For the same molecule, the “LPS-stimulated ATP secretion” value in test [3] (1 μM) and in test [3] (10 μM) was “almost completely inhibited” each time.
